Assay results from patent US10080743B2, “Isoxazole derivatives as FXR agonists and methods of use thereof” (Enanta Pharmaceuticals, Inc., priority 2016, dated 2018).

Biological target: T1, human FXR (NR1H4) (Homo sapiens, UniProt Q96RI1)
T1 construct: host or cells: CHO (Chinese hamster ovary) cells
T1 sequence (Q96RI1 1-486): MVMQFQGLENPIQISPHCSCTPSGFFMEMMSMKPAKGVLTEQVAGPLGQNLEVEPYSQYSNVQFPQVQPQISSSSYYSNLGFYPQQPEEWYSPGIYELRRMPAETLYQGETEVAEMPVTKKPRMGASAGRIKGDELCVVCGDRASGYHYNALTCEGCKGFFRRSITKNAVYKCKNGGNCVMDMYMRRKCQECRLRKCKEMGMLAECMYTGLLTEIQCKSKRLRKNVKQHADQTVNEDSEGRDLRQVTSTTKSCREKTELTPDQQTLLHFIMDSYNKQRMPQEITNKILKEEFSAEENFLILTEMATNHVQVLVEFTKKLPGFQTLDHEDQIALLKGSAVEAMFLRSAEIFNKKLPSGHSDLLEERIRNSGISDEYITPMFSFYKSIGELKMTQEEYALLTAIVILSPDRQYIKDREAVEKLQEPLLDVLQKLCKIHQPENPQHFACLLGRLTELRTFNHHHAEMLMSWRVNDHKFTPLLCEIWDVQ
Test: Human FXR (NR1H4) Assay (Gal4 promoter driven luciferase reporter transactivation, Indigo Bioscience kit IB00601)
Format: cell-based
Settings: for EC50: Human FXR (NR1H4) reporter assay, CHO cells expressing human NR1H4, potency ranges; for Efficacy (%): efficacy normalized to CDCA set as 100%
Description: Human FXR (NR1H4) Assay Determination of a ligand mediated Gal4 promoter driven transactivation to quantify ligand binding mediated activation of FXR. FXR Reporter Assay kit purchased from Indigo Bioscience (Catalogue number: IB00601) to determine the potency and efficacy of compound developed by Enanta that can induce FXR activation. The principle application of this reporter assay system is to quantify functional activity of human FXR. The assay utilizes non-human mammalian cells, CHO (Chinese hamster ovary) cells engineered to express human NR1H4 protein (referred to as FXR). Reporter cells also incorporate the cDNA encoding beetle luciferase which catalyzes the substrates and yields photon emission. Luminescence intensity of the reaction is quantified using a plate-reading luminometer, Envision. Reporter Cells include the luciferase reporter gene functionally linked to an FXR responsive promoter. Thus, quantifying changes in luciferase expression in the treated reporter cells provides a sensitive surrogate measure of the changes in FXR activity. […] The assay is according to the manufacturer's instructions. […] Retrieve Reporter Cells from −80° C. storage. Perform a rapid thaw of the frozen cells by transferring a 10 ml volume of 37° C. cell recovery medium into the tube of frozen cells. Recap the tube of Reporter Cells and immediately place it in a 37° C. water bath for 5-10 minutes. Retrieve the tube of Reporter Cell Suspension from the water bath. Sanitize the outside surface of the tube with a 70% alcohol swab, and then transfer it into the cell culture hood. Dispense 90 μl of cell suspension into each well of the 96-well Assay Plate. Transfer the plate into 37° C. incubator, allowing the cells adherent to the bottom of the well. Dilute compounds in Dilution Plate (DP), and administrate to cells at Assay Plate (AP). DMSO content of the samples was kept at 0.2%. Cells were incubated for additional 22 hours before luciferase activities were measured. Thirty minutes before intending to quantify FXR activity, remove Detection Substrate and Detection Buffer from the refrigerator and place them in a low-light area so that they may equilibrate to room temperature. Remove the plate's lid and discard all media contents by ejecting it into an appropriate waste container. Gently tap the inverted plate onto a clean absorbent paper towel to remove residual droplets. Cells will remain tightly adhered to well bottoms. Add 100 μl of luciferase detection reagent to each well of the assay plate. Allow the assay plate to rest at room temperature for at least 5 minutes following the addition of LDR. Set the instrument (Envision) to perform a single 5 second “plate shake” prior to reading the first assay well. Read time may be 0.5 second (500 mSec) per well.

EC50	Efficacy (%)	SMILES
100 to 1000 nM	1.2%	CC(C)c1onc(-c2c(Cl)cccc2Cl)c1COc1ccc(-c2ccc3c(NC(=O)NS(=O)(=O)C4CC4)cccc3c2)cc1 [Compound 11]
100 to 1000 nM	117%	CC(C)c1onc(-c2c(Cl)cccc2Cl)c1COc1ccc(-c2ccc3c(NC(=O)NS(=O)(=O)c4ccccc4)cccc3c2)cc1 [Compound 16]
100 to 1000 nM	1.3%	CC(C)c1onc(-c2c(Cl)cccc2Cl)c1COc1ccc(-c2ccc3c(C(=O)NS(=O)(=O)N(C)C)cccc3c2)cc1 [Compound 90]
100 to 1000 nM	220%	CC(C)c1onc(-c2c(Cl)cccc2Cl)c1COc1ccc(-c2ccc3c(C(=O)O)cccc3c2)cc1 [Compound (1), reference compound]
